Results as given in patent EP0629405A1, “Agent for inhibiting a decrease in bone mass in renal osteodystrophy” (KUREHA CHEMICAL INDUSTRY CO., LTD., priority 1993, dated 1994).
Where two headings read alike, the source gives them in different places.

Legend:
[1] = system: male SD rats with 7/8 of their kidney arteries ligated; experiment: renal osteodystrophy model: rats with 7/8 of kidney arteries ligated, oral administration for 4 months; femur mineral content by single photon absorptiometry and bone histology; assay type: in vivo; conditions: sham-operated control 0.284± 0.023, ligation-operated control 0.259± 0.017
Text: In view of these circumstances, the present inventors have made extensive investigations to develop novel rat models wherein renal insufficiency induces abnormal bone quality and low bone mass similar to clinical renal osteodystrophy. As a result, the present inventors have succeeded in obtaining an animal model with such diseases. Thus, after 7/8 of kidney arteries were ligated, animals endurable even for a long breeding term with a mild renal insufficiency were selected and carefully bred for 6 months to establish an animal model with renal osteodystrophy with accompanying abnormal bone quality and low bone mass.
After male SD rats with 7/8 of their kidney arteries ligated at 11 weeks old are bred for 8 weeks, 24R, 25-(OH)₂-D₃ and 24, 25-(OH)₂-D₃ (a racemate of 24R and 24S isomers) are administered orally to the rat for 4 months, respectively.
A solution of sesame oil (the Pharmacopoeia of Japan) containing 0.5 % ethanol is utilized as the solvent. The test is conducted by using 5 groups each of which consists of 6 to 10 rats as follows: • I. sham-operated control group (normal control group, solvent administration) n=8 • II. solvent administration control group n=6 • III. 24R, 25-(OH)₂-D₃ 0.1 µg/kg n=6 • IV. 24R, 25-(OH)₂-D₃ 5.0 µg/kg n=10 • V. 24, 25-(OH)₂-D₃ 5.0 µg/kg n=10
After administration, blood is anesthetically collected and applied to a biochemical serum analysis. After femur is resected, mineral content of femur is measured by means with equipment capable of measuring bone mass (single photon absorptiometry; SPA). Further, the bone tissue sample is stained by Villaneuva's bone staining after slicing, followed by observation under a microscope.

[2] = acute toxicity, oral administration in sesame oil, death rates for 2 weeks; conditions: mouse, in vivo, sesame oil containing 0.5 % ethanol, read-out: LD₅₀ (lethal dose, 50% mortality)
Description: The active compound of the present invention is tested for acute toxicity and the resultant data is shown as follows:
The active compound of the present invention, 24R, 25-(OH)₂-D₃ is admixed with a sesame oil (containing 0.5 % ethanol) and the mixture is orally administered to 4 groups of female and male ICR mice (each group has 5 mice) (body weight: male 29 to 33 g, female 22 to 29 g). Two weeks later, toxic symptom is observed.

| SMILES | bone mass (mineral content of femur, SPA) ([1]; 5.0 µg/kg orally for 4 months) [g/cm²] | bone mass (mineral content of femur, SPA) ([1]; 0.1 µg/kg orally for 4 months) [g/cm²] | LD50 at 336 h ([2]; female ICR mice) [mg/kg] | LD50 at 336 h ([2]; male ICR mice) [mg/kg] |
| --- | --- | --- | --- | --- |
| C=C1CC[C@H](O)C/C1=C/C=C1\CCC[C@]2(C)[C@@H]([C@H](C)CCC(O)C(C)(C)O)CC[C@@H]12 (some centres unmarked) [24, 25-(OH)₂-D₃, 24, 25-dihydroxycholecalciferol] | 0.282± 0.025 | – | – | – |
| C=C1CC[C@H](O)C/C1=C/C=C1\CCC[C@]2(C)[C@@H]([C@H](C)CC[C@@H](O)C(C)(C)O)CC[C@@H]12 [24R, 25-(OH)₂-D₃, 24R, 25-dihydroxycholecalciferol] | 0.292 ± 0.019 | 0.291± 0.032 | 253 | 215 |
